# Key:
# THP-1 cells [1] = experiment: DMSO shock of THP-1 cells, percentage of dead cells; type: cell-based, human
# Protocol: Cells were incubated in the presence of 10% DMSO at 37° C. for 90 minutes (tryptan-blue test).
# Saccaramices Cerevisiae = experiment: Viability of lyophilized yeast; type: cell-based; conditions: added prior to lyophilization
# Protocol: The lyophilization of yeast is a very common technique used in different fields of industry, biotechnology and research. The viability of lyophilized yeast species and strains can vary greatly. The viability of commercial baking yeast after lyophilization is high (50-80%). But other strains of yeast used in industry and research, can have viability as low as […]. […] Glucural was tested using the strain of yeast called Saccaramices Cerevisiae, a strain with a very low level of viability after lyophilization. By increasing the viability of lyophilized yeast inoculums, the amount of yeast required to make such inoculums may be lowered.
# The standard method of lyophilization was used. […] The suspensions were aliquoted and lyophilized at standard conditions.
# To assay the vitality of lyophilized yeast, two approaches were used:
# The lyophilized yeast from an ampoule was re-suspended in 1 ml of regular growing medium and diluted by 10, 100, and 1,000 times. The suspensions of yeast were plated on the regular YPD agarose medium by 20 mkl per plate. After growing the colonies for 48 hours at 28° C., the number of colonies was counted.
# This test included growing lyophilized yeast in 10 ml of growth medium for 24 hours, before plating on the agarose plates as described above.
# The viability of the yeast strain tested increased by a factor of between 50 to 100 compared to the control group.
# THP-1 cells [2] = experiment: Long-term growth of THP-1 cells without change of medium (starvation); type: cell-based, human
# MEL cells = experiment: Cell recovery after short-term and long-term storage at −135° C.; type: cell-based, mouse; conditions: for numbers of cells per ml, Short-Term Storage: 3 days at −135° C.; for numbers of cells per ml, Long-Term Storage: six weeks at −135° C.
# Protocol: The cells were then brought to −135° C. over a two-hour period, and stored at this temperature for 3 days (short term) or six weeks (long term). The cells were then thawed quickly by incubation at 37° C., washed twice with growing medium, re-suspended in 5 ml and incubated at 37° C. for 24 hours. The numbers of cells per ml. is x 10^4, two different assays. […]
# [3] = standard tests by Dr. Kirk Sperber, unpublished data; cited from earlier work
# [4] = tested on: Mouse erythroleukemia (MEL) cells; experiment: Growth activity following maximal cell damage (two freeze/thaw cycles, 10% DMSO); type: cell-based
# Protocol: Mouse erythroleukemia (MEL) cells were damaged from exposure to two freeze/thaw cycles. The cells were then grown in the presence of 10% dimethylsulfoxide (DMSO), a substance known to damage cell membranes. […] The cells were then subjected to two freeze/thaw cycles (the cells were quickly brought to −135° C., incubated for 1 hour at −135° C. and quickly thawed to 100% humidity and 37° C.). The cell concentration was then determined by counting, using a hematocytometer. The experiments were done in duplicate.
# [5] = tested on: HUCVEC exposed to human TNF-alpha; experiment: HUCVEC Assays 4-6: exposure to human TNF-alpha, trypan-blue test; type: cell-based; conditions: Glucural 500 mkg/ml
# Protocol: To test for cell damage, HUCVEC were exposed for period of 6 to 24 hours to the human TNF-alpha. The trypan-blue test was used. After exposure, mono-layers were removed by trypsin treatment. Results were estimated based on the percentage of colored dead cells in the mono-layer.
# [6] = tested on: ATT-20 cells (anterior lobe of the pituitary gland, corticotrophs); experiment: Storage of ATT-20 cells at low temperature, viability by well bottom coverage; type: cell-based; conditions: 10% Glycerol
# Protocol: The goal of the study was to assess the influence of Glucural on cell recovery of different mammalian cells suspended in various cryo-protectors. A single layer of the rat thyroid-derived cell line FRTL-5 was grown in VPF-12 medium containing 10% calf serum (C.S.) in Petri dishes (10 cm) stored in an environment of 5% CO2, 100% humidity and at 37° C. Cell coverage on the Petri dish bottom reached 80-90% over 6-8 days. A single-layer cell culture of the cell line from the anterior lobe of the pituitary gland (corticotrophs) of ATT-20 was grown in similar fashion but in D-MEM medium containing 10% C.S.
# After exposure, cell suspensions were melted quickly in aliquots with cell suspension equal to 0.2 or 0.4 ml per well. The growing period varied depending on conditions of cell storage. All trials were performed in duplicate. Cell viability was estimated by the percentage of the well bottom covered by cells.
# The same method was used here as in tests with MEL cells. Cryo-protectors used were not optimal for FRTL-5 and ATT-20 cells. Conditions of freezing were not optimal in assays # 1, 5 and 6.
# Intact MEL cells = experiment: Cell toxicity of Glucural in intact conditions: growth of MEL; type: cell-based, mouse; conditions: for number of cells per ml, Regular conditions: 24 hours
substance,measurement,setting,value
"complex of 2,4-dihydroxy-6-methylpyrimidine with N-methyl-D-glucamine [Glucural]",percentage of dead THP-1 cells,"THP-1 cells [1]; Control + Glucural 25 mkg/ml, assay 1",3.9 ± 0.7%
same,percentage of dead THP-1 cells,"THP-1 cells [1]; Control + Glucural 25 mkg/ml, assay 2",5.8 ± 3.1%
same,percentage of dead THP-1 cells,"THP-1 cells [1]; Control + Glucural 25 mkg/ml, assay 4",3.0 ± 1.0%
same,percentage of dead THP-1 cells,"THP-1 cells [1]; DMSO shock (10% DMSO, 37° C., 90 minutes) + Glucural 25 mkg/ml, assay 1",4.1 ± 1.6%
same,percentage of dead THP-1 cells,"THP-1 cells [1]; DMSO shock (10% DMSO, 37° C., 90 minutes) + Glucural 25 mkg/ml, assay 2",7.7 ± 3.4%
same,percentage of dead THP-1 cells,"THP-1 cells [1]; DMSO shock (10% DMSO, 37° C., 90 minutes) + Glucural 25 mkg/ml, assay 3",4.6 ± 2.2%
same,percentage of dead THP-1 cells,"THP-1 cells [1]; DMSO shock (10% DMSO, 37° C., 90 minutes) + Glucural 25 mkg/ml, assay 4",5.0 ± 2.3%
same,optimal dose to protect yeast cells,Saccaramices Cerevisiae,25 mkg/ml
same,percentage of dead cells (trypan blue test),"THP-1 cells [2]; Glucural 10 mkg/ml, 3 days of growing",2.1 ± 0.5%
same,percentage of dead cells (trypan blue test),"THP-1 cells [2]; Glucural 10 mkg/ml, 4 days of growing",7.2 ± 1.3%
same,percentage of dead cells (trypan blue test),"THP-1 cells [2]; Glucural 10 mkg/ml, 10 days of growing",10.7 ± 0.2%
same,percentage of dead cells (trypan blue test),"THP-1 cells [2]; Glucural 10 mkg/ml, 14 days of growing",15.3 ± 0.2%
same,percentage of dead cells (trypan blue test),"THP-1 cells [2]; Glucural 20 mkg/ml, 3 days of growing",5.5 ± 0.25%
same,percentage of dead cells (trypan blue test),"THP-1 cells [2]; Glucural 20 mkg/ml, 4 days of growing",0%
same,percentage of dead cells (trypan blue test),"THP-1 cells [2]; Glucural 20 mkg/ml, 10 days of growing",10.85 ± 0.35%
same,percentage of dead cells (trypan blue test),"THP-1 cells [2]; Glucural 20 mkg/ml, 14 days of growing",15.3 ± 0.5%
same,effect during short-term storage,MEL cells,little or no effect
same,"numbers of cells per ml, Short-Term Storage",MEL cells; Glucural 10 mkg/ml,34 ± 4 x 10^4
same,"numbers of cells per ml, Long-Term Storage",MEL cells; Glucural 10 mkg/ml,122 ± 8 x 10^4
same,"numbers of cells per ml, Short-Term Storage",MEL cells; Glucural 25 mkg/ml,38 ± 2 x 10^4
same,"numbers of cells per ml, Long-Term Storage",MEL cells; Glucural 25 mkg/ml,167 ± 3 x 10^4
same,"numbers of cells per ml, Short-Term Storage",MEL cells; Glucural 50 mkg/ml,33 ± 2 x 10^4
same,"numbers of cells per ml, Long-Term Storage",MEL cells; Glucural 50 mkg/ml,200 ± 12 x 10^4
same,"numbers of cells per ml, Short-Term Storage",MEL cells; Glucural 100 mkg/ml,37 ± 2 x 10^4
same,"numbers of cells per ml, Long-Term Storage",MEL cells; Glucural 100 mkg/ml,169 ± 15 x 10^4
same,"numbers of cells per ml, Short-Term Storage",MEL cells; Glucural 200 mkg/ml,56 ± 5 x 10^4
same,"numbers of cells per ml, Long-Term Storage",MEL cells; Glucural 200 mkg/ml,155 ± 14 x 10^4
same,increase of cell survival rates during long-term storage,MEL cells; optimal concentration of about 50 mkg/ml,over 3 times
same,anti-inflammatory action compared with thalidomide,[3],equal anti-inflammatory action as thalidomide
same,The number of cells per 1 ml,[4]; Glucural 5 mkg/ml,0 ×10^4
same,The number of cells per 1 ml,[4]; Glucural 10 mkg/ml,0 ×10^4
same,The number of cells per 1 ml,[4]; Glucural 25 mkg/ml,53 ± 7 ×10^4
same,The number of cells per 1 ml,[4]; Glucural 50 mkg/ml,107 ± 7 ×10^4
same,Percent of dead cells in mono-layer,"[5]; Assay 4, 24 hours, TNF-alpha 20 ng/ml",10.3 ± 1.3%
same,Percent of dead cells in mono-layer,"[5]; Assay 4, 24 hours, no TNF-alpha",4.4 ± 0.4%
same,Percent of dead cells in mono-layer,"[5]; Assay 5, 8 hours, TNF-alpha 10 ng/ml",4.1 ± 0.4%
same,Percent of dead cells in mono-layer,"[5]; Assay 5, 8 hours, TNF-alpha 20 ng/ml",5.4 ± 0.4%
same,Percent of dead cells in mono-layer,"[5]; Assay 5, 8 hours, no TNF-alpha",5.7 ± 0.5%
same,Percent of dead cells in mono-layer,"[5]; Assay 6, 6 hours, TNF-alpha 40 ng/ml",10.9 ± 3.4%
same,Percent of dead cells in mono-layer,"[5]; Assay 6, 6 hours, no TNF-alpha",13.8 ± 2.7%
same,Percentage of well bottom covered by cells,"[6]; #4 AtT-20 (3 days), −190° C., Glucural 50 mg/ml",50-60%
same,Percentage of well bottom covered by cells,"[6]; #4 AtT-20 (3 days), −190° C., Glucural 100 mg/ml",80-90%
same,Percentage of well bottom covered by cells,"[6]; #5 AtT-20 (44 days), −70° C., Glucural 100 mg/ml",40-50%
same,Percentage of well bottom covered by cells,"[6]; #5 AtT-20 (44 days), −70° C., Glucural 200 mg/ml",30-40%
same,Percentage of well bottom covered by cells,"[6]; #6 AtT-20 (46 days), −70° C., additional melting freezing, Glucural 100 mg/ml",20-30%
same,Percentage of well bottom covered by cells,"[6]; #6 AtT-20 (46 days), −70° C., additional melting freezing, Glucural 200 mg/ml",10-20%
same,"number of cells per ml, Regular conditions",Intact MEL cells; Glucural 25 mkg/ml,67 ± 1 x 10^4
same,"number of cells per ml, Regular conditions",Intact MEL cells; Glucural 50 mkg/ml,68 ± 1 x 10^4
same,"number of cells per ml, Regular conditions",Intact MEL cells; Glucural 100 mkg/ml,71 ± 2 x 10^4
same,"number of cells per ml, Regular conditions",Intact MEL cells; Glucural 200 mkg/ml,58 ± 3 x 10^4
same,"number of cells per ml, Regular conditions",Intact MEL cells; Glucural 400 mkg/ml,69 ± 5 x 10^4
same,influence on cells in regular conditions,Intact MEL cells; Glucural from 25 to 400 mkg/ml,no influence

# Source: patent publication US20050064382A1, “Method of prevention of lysosomal leakage in eukaryotic cells by using 6-methyluracil based water-soluble compounds and method of producing thereof” (priority 2002, published 2005)
